# Data: US7671023B2 (Amylin Pharmaceuticals, Inc., priority 2005, dated 2010)
# Tests used:
# [1] = test system: mice; assay: marble burying; type: in vivo, mouse; settings: for reduction in marble burying, statistical significance: amylin at 10 mg/kg, buspirone at 20 mg/kg, P<0.05; for number of marbles buried in 30 minutes: injected 15-30 minutes prior to test, rat amylin 0.1, 1.0 or 10 mg/kg, buspirone 20/kg, FIG. 3
# Protocol: (§1) These specific behavioral tests are known to be sensitive to anxiolytic, antidepressant, or antipsychotic drugs.
# Marble burying is used as a model for both anxiety and obsessive-compulsive disorder. See, for example, Chaki et al. (2003) J. Pharmacol. Exp. Ther. 304:818-826. Anxiolytics suppress marble burying activity. […] Mice were then placed individually in clean cages containing 5-cm of hard wood bedding and 20 marbles spaced evenly in rows of five. The number of marbles buried in 30 minutes was recorded. […] Buspirone is a partial 5-HT1A agonist and an known anxiolytic agent.
# [2] = test system: test animals; assay: amylin activity in vivo in treated test animals (hyperlactemia followed by hyperglycemia); settings: e.g., provoking marked hyperlactemia followed by hyperglycemia
# [3] = test system: Male, Sprague-Dawley rats; assay: sugar withdrawal paradigm with restraint stress (stress-induced feeding); type: in vivo; settings: rat amylin 300 μg/kg/d by osmotic pump
# Protocol: Male, Sprague-Dawley® rats were submitted to a sugar withdrawal paradigm and observed for effects of stress on sugar intake. […] All rats were provided with ad libitum access to standard chow, water, and a 30% sucrose drink. Subsequently, the sucrose drink was removed and half of the rats were subjected, daily, to 3 h of mild restraint stress for 3 successive days. After 3 days, sucrose was provided and its daily average consumption was measured over 4 days. Chow intake was also measured over the 3 days of withdrawal and stress and over the following 4 days when sucrose was re-introduced. No restraint was applied during the 4 days of sucrose re-introduction. Results of this assay are shown in FIG. 1 where * is P<0.05 by ANOVA and Fisher LSD post-hoc analyses.
# [4] = test system: mice; assay: stress-induced hyperthermia (SIH) assay; type: in vivo, mouse
# Excerpt: as §1
# Body temperature and emotional state are closely related in humans, and stress-induced hyperthermia (SIH) in mice is considered to have predictive validity for certain human anxiety/stress disorders. The SIH assay assesses the effect of anxiolytics or test agents on stress-induced hyperthermia and measures the intrinsic effects of these drugs on core body temperature of the animal. See, for example, Zethof et al. (1994) Physiol. Behav. […] Anxiolytics blunt the increase in body temperature, or hyperthermic response, following stress exposure. […] Mice were subjected to two sequential rectal temperature measurements ten minutes apart. The stress from the first measurement induces hyperthermia which was measured by the second temperature measurement. The difference between the two temperatures (ΔT) was the stress-induced hyperthermia.
# [5] = test system: mice; assay: forced swim test (FST); type: in vivo, mouse; settings: delivered continuously for two weeks by subcutaneous osmotic pumps; 5 minute trial session; FIG. 4
# Excerpt: as §1
# The forced swim test (FST) is a commonly used paradigm to evaluate antidepressant activity of drugs. This test is based on measurement of the animal's floating time in a tank filled with water. When rats or mice are forced to swim in a deep cylinder with tepid water they become nearly immobile and cease trying to escape. This characteristic immobile posture is thought to reflect a depressive-like state and is readily influenced by a wide variety of antidepressants. See, for example, Hédou et al. (2001) Pharmacol., Biochem. Behav. […] Antidepressants decrease the immobility time in the FST. Rat amylin or vehicle was delivered continuously for two weeks to mice by subcutaneously implanted osmotic pumps prior to the FST. On day one, the mice were placed in the water tank for a 15 minute pre-swim session. On day two, the mice were placed back into the water tank for assessment of climbing, swimming, and immobility over a 5 minute trial session.
# [6] = test system: mice; assay: prepulse inhibition (PPI) test; type: in vivo, mouse; settings: amylin at 10 mg/kg; haloperidol 1 mg/kg; all prepulse levels tested (74, 78, and 82 dB); 120 dB stimulus; FIG. 5
# Excerpt: as §1
# The prepulse inhibition (PPI) test measures the reflex response to externally applied auditory stimulation (acoustic startle response) and is related to the deficiency in sensory-motor gating capacity seen in schizophrenia. The acoustic startle reflex is a very basic response to strong exteroceptive stimuli and is widely used to assess sensorimotor reactivity in animals and humans. A weak auditory stimulus (prepulse, 74-82 dB) given prior to the strong acoustic stimulus (120 dB) blunts the startle response. This blunting of the startle response is referred to as prepulse inhibition. […] Antipsychotics increase the ability of the prepulse stimulus to blunt the startle response to the strong stimulus. Some psychotomimetic agents, such as phencyclidine (PCP) and ketamine, can actually reduce the percent prepulse inhibition and stimulate a psychotic-like state in animals, which can be antagonized by antipsychotic agents.
# The mice were placed into an animal holder and the holder placed onto a transducer platform in an acoustic chamber. A weak auditory stimulus (prepulse) of 74, 78 and 82 dB was given prior to the strong acoustic stimulus (120 dB). The amount of the animal's “reaction” to the strong stimulus was recorded. […]
# [7] = test system: mice; assay: phencyclidine (PCP)-induced locomotion test; type: in vivo, mouse
# Excerpt: as §1
# The PCP-induced locomotion test is used with the open field activity chambers and measures locomotion, rearing, and stereotypic activity under amphetamine/PCP-induced conditions. The test has predictive validity for some antipsychotic drugs that normalize the hyperactivity and stereotypic behavior seen with amphetamine and PCP. See, for example, Williams et al. (2006) Prog. Neuropsychopharmacol. Biol. Psychiatry 30:239-243. […] The animals were then placed in the center of an open field and activity was recorded for 60 minutes. […] CZP is an atypical, second generation antipsychotic drug has a mixed receptor profile, including the dopamine receptor.
# [8] = test system: Adult, male Sprague-Dawley rats; assay: weight gain induced by clozapine; type: in vivo; settings: rat amylin 10 μg/kg/day co-administered with clozapine […], osmotic pump, 4 weeks; FIG. 7B
compound,measurement,setting,value
"O=C1CC2(CCCC2)CC(=O)N1CCCCN1CCN(c2ncccn2)CC1 [buspirone, reference compound]","reduction in marble burying, statistical significance",[1],statistically significant
same,number of marbles buried in 30 minutes,[1],reduced the number of marbles buried
"CC[C@H](C)[C@H](NC(=O)[C@@H]1CCCN1C(=O)CNC(=O)[C@H](Cc1ccccc1)NC(=O)[C@H](CC(N)=O)NC(=O)[C@H](CC(N)=O)NC(=O)[C@H](CO)NC(=O)[C@H](CO)NC(=O)[C@H](Cc1c[nH]cn1)NC(=O)[C@@H](NC(=O)[C@H](CC(C)C)NC(=O)[C@H](Cc1ccccc1)NC(=O)[C@H](CC(N)=O)NC(=O)[C@H](C)NC(=O)[C@H](CC(C)C)NC(=O)[C@H](CCCNC(=N)N)NC(=O)[C@H](CCC(N)=O)NC(=O)[C@@H](NC(=O)[C@H](C)NC(=O)[C@@H]1CSSC[C@H](NC(=O)[C@@H](N)CCCCN)C(=O)N[C@@H](CC(N)=O)C(=O)N[C@@H]([C@@H](C)O)C(=O)N[C@@H](C)C(=O)N[C@@H]([C@@H](C)O)C(=O)N1)[C@@H](C)O)C(C)C)C(=O)N[C@@H](CC(C)C)C(=O)N1CCC[C@H]1C(=O)N1CCC[C@H]1C(=O)N[C@H](C(=O)N[C@@H](CC(N)=O)C(=O)N[C@H](C(=O)NCC(=O)N[C@@H](CO)C(=O)N[C@@H](CC(N)=O)C(=O)N[C@H](C(=O)N[C@@H](Cc1ccc(O)cc1)C(N)=O)[C@@H](C)O)C(C)C)[C@@H](C)O [^25,28,29Pro-h-amylin, reference compound]",amylin activity in vivo,[2],show amylin activity in vivo
^28Pro-h-amylin (KCNTATCATQRLANFLVHSSNNFGAILPSTNVGSNTY),amylin activity in vivo,[2],show amylin activity in vivo
"KCNTATCATQRLANFLVRSSNNLGPVLPPTNVGSNTY (listed as Rattus sp.) [rat amylin, 37-amino acid polypeptide hormone; rat species variant of amylin]",average sucrose to chow consumption ratio (as % of baseline),"[3]; 3 h mild restraint stress daily for 3 days, sucrose intake over following 4 days, FIG. 1A",prevents the increase in the average sucrose to chow consumption ratio
same,chow consumption (stress-induced decrease),"[3]; restraint stress, FIG. 1B",protects against this behavioral response to stress
same,SIH response (ΔT),"[4]; acute, 60 minutes before the assay, rat amylin 0.1, 1.0 or 10 mg/kg, chlordiazepoxide 10 mg/kg, FIG. 2",blunted the SIH response
same,"SIH response (ΔT), chronic infusion","[4]; subcutaneously implanted pumps, amylin 300 μg/kg/d, CDP 10 mg/kg/d, at both 1 week and 4 weeks of administration",significantly blunted the SIH response
same,"reduction in marble burying, statistical significance",[1],statistically significant
same,number of marbles buried in 30 minutes,[1],reduced the number of marbles buried
same,time spent in the immobile state,[5],significantly reduced the time spent in the immobile state
same,percent of prepulse inhibition,[6],significantly increased the percent of prepulse inhibition
same,baseline activity,"[7]; agent alone, without PCP",did not affect baseline activity
same,rearing activity and PCP-induced rearing activity,"[7]; open field, with and without 5 mg/kg PCP",reduced rearing activity and PCP-induced rearing activity
same,total distance traveled,"[7]; rat amylin 0.1, 1.0 or 10 mg/kg or 3 mg/kg clozapine 15-30 minutes prior to 5 mg/kg PCP, total, central, and peripheral, 60 minutes, FIG. 6",significantly reduced the total distance traveled
same,weight gain observed with clozapine alone,[8],prevented the weight gain
"des-^1Lys^18Arg^25,28Pro-h-amylin (CNTATCATQRLANFLVRSSNNFGPILPSTNVGSNTY)",amylin activity in vivo,[2],show amylin activity in vivo
des-^1Lys-h-amylin (CNTATCATQRLANFLVHSSNNFGAILSSTNVGSNTY),amylin activity in vivo,[2],show amylin activity in vivo
"O=C(CCCN1CCC(O)(c2ccc(Cl)cc2)CC1)c1ccc(F)cc1 [halperidol, haloperidol, reference compound]",percent of prepulse inhibition,[6],significantly increased the percent of prepulse inhibition
